Data taken from patent US20220324913A1, “ANTIGENIC NEURON SPECIFIC ENOLASE PEPTIDES FOR DIAGNOSING AND TREATING AUTISM” (THE REGENTS OF THE UNIVERSITY OF CALIFORNIA, priority 2019, published 2022).
Entries after “also recorded” stand apart in the source; their conditions may differ.

Tested on: maternal autoantibodies (plasma from mothers of ASD and TD children)
Assay: NSE 15-mer peptide microarray epitope mapping probed with maternal plasma
Assay type: binding, human
Details: for Specific binding: group whose antibodies recognize the sequence; for ASD + N = 19 (number of positive samples) / ASD + N = 8 (number of positive samples): mothers of ASD children; for ASD + N = 19 (number of positive samples) / TD + N = 10 (number of positive samples) / ASD + N = 8 (number of positive samples) / TD + N = 11 (number of positive samples): positive if FI >200; for TD + N = 10 (number of positive samples) / TD + N = 11 (number of positive samples): mothers of TD children

Substance | Specific binding (ELISA positive samples) | ASD + N = 19 (number of positive samples) (ELISA positive samples) | TD + N = 10 (number of positive samples) (ELISA positive samples) | Specific binding (ELISA negative samples) | other results
218 (GGFAPNILENSEALE; listed as Homo sapiens) [compound 218] | ASD | 3 | 0 |  | 
291 (VRDYPVVSIEDPFDQ; listed as Homo sapiens) [compound 291] |  |  |  | ASD and TD | ASD + N = 8 (number of positive samples) (ELISA negative samples): 4; TD + N = 11 (number of positive samples) (ELISA negative samples): 4
411 (LAKYNQLMRIEEELG; listed as Homo sapiens) [compound 411] | ASD | 3 | 0 |  | 
294 (YPVVSIEDPFDQDDW; listed as Homo sapiens) [compound 294] |  | 8 | 4 | ASD and TD | ASD + N = 8 (number of positive samples) (ELISA negative samples): 5; TD + N = 11 (number of positive samples) (ELISA negative samples): 7
DYPVVSIEDPFDQDD (listed as Homo sapiens) [ES 293] |  |  |  |  | Specific binding (ELISA positive samples, listed as SEQ ID NO:7): recognized by plasma from both sample groups; also recorded: recognized by antibodies in both experimental groups
297 (VSIEDPFDQDDWAAW; listed as Homo sapiens) [compound 297] |  | 4 | 1 | ASD and TD | ASD + N = 8 (number of positive samples) (ELISA negative samples): 2; TD + N = 11 (number of positive samples) (ELISA negative samples): 2
298 (SIEDPFDQDDWAAWS; listed as Homo sapiens) [compound 298] | ASD | 4 | 0 |  | 
281 (DQLGALYQDFVRDYP; listed as Homo sapiens) [compound 281] | ASD | 3 | 0 |  | 
299 (IEDPFDQDDWAAWSK; listed as Homo sapiens) [compound 299] | ASD | 2 | 0 |  | 
288 (QDFVRDYPVVSIEDP; listed as Homo sapiens) [compound 288] |  |  |  | ASD | ASD + N = 8 (number of positive samples) (ELISA negative samples): 3; TD + N = 11 (number of positive samples) (ELISA negative samples): 0
412 (AKYNQLMRIEEELGD; listed as Homo sapiens) [compound 412] | ASD | 3 | 0 |  | 
QDFVRDYPVVSIEDP (listed as Homo sapiens) [ES 288] |  |  |  | ASD-specific | 
416 (QLMRIEEELGDEARF; listed as Homo sapiens) [compound 416] | ASD | 3 | 0 |  | 
292 (RDYPVVSIEDPFDQD; listed as Homo sapiens) [compound 292] |  |  |  | ASD and TD | ASD + N = 8 (number of positive samples) (ELISA negative samples): 5; TD + N = 11 (number of positive samples) (ELISA negative samples): 2
296 (VVSIEDPFDQDDWAA; listed as Homo sapiens) [compound 296] |  | 4 | 1 | ASD and TD | ASD + N = 8 (number of positive samples) (ELISA negative samples): 4; TD + N = 11 (number of positive samples) (ELISA negative samples): 2
293 (DYPVVSIEDPFDQDD; listed as Homo sapiens) [compound 293] |  | 6 | 4 | ASD and TD | ASD + N = 8 (number of positive samples) (ELISA negative samples): 6; TD + N = 11 (number of positive samples) (ELISA negative samples): 7

Substance | Specific binding (ELISA positive samples) | ASD + N = 19 (number of positive samples) (ELISA positive samples) | TD + N = 10 (number of positive samples) (ELISA positive samples) | Specific binding (ELISA negative samples) | other results
290 (FVRDYPVVSIEDPFD; listed as Homo sapiens) [compound 290] |  |  |  | ASD and TD | ASD + N = 8 (number of positive samples) (ELISA negative samples): 3; TD + N = 11 (number of positive samples) (ELISA negative samples): 1
409 (ERLAKYNQLMRIEEE; listed as Homo sapiens) [compound 409] | ASD | 7 | 0 |  | 
252 (DVAASEFYRDGKYDL; listed as Homo sapiens) [compound 252] | ASD | 3 | 0 |  | 
289 (DFVRDYPVVSIEDPF; listed as Homo sapiens) [compound 289] | ASD | 3 | 0 |  | 
413 (KYNQLMRIEEELGDE; listed as Homo sapiens) [compound 413] | ASD | 3 | 0 |  | 
280 (GDQLGALYQDFVRDY; listed as Homo sapiens) [compound 280] | ASD | 3 | 0 |  | 
410 (RLAKYNQLMRIEEEL; listed as Homo sapiens) [compound 410] | ASD | 5 | 0 |  | 
295 (PVVSIEDPFDQDDWA; listed as Homo sapiens) [compound 295] |  | 5 | 2 | ASD and TD | ASD + N = 8 (number of positive samples) (ELISA negative samples): 4; TD + N = 11 (number of positive samples) (ELISA negative samples): 3
408 (SERLAKYNQLMRIEE; listed as Homo sapiens) [compound 408] | ASD | 6 | 0 |  | 
407 (RSERLAKYNQLMRIE; listed as Homo sapiens) [compound 407] | ASD | 3 | 0 |  | 
YPVVSIEDPFDQDDW (listed as Homo sapiens) [ES 294] |  |  |  |  | Specific binding (ELISA positive samples, listed as SEQ ID NO:8): recognized by plasma from both sample groups; also recorded: recognized by antibodies in both experimental groups
VSIEDPFDQDDWAAW (listed as Homo sapiens) [ES 297] |  |  |  |  | Specific binding (ELISA positive samples, listed as SEQ ID NO:11): recognized by plasma from both sample groups; also recorded: recognized by antibodies in both experimental groups
PVVSIEDPFDQDDWA (listed as Homo sapiens) [ES 295] |  |  |  |  | Specific binding (ELISA positive samples, listed as SEQ ID NO:9): recognized by plasma from both sample groups; also recorded: recognized by antibodies in both experimental groups
279 (TGDQLGALYQDFVRD; listed as Homo sapiens) [compound 279] | ASD | 5 | 0 |  | 
VVSIEDPFDQDDWAA (listed as Homo sapiens) [ES 296] |  |  |  |  | Specific binding (ELISA positive samples, listed as SEQ ID NO:10): recognized by plasma from both sample groups; also recorded: recognized by antibodies in both experimental groups
